From publication PMC9889419 (Pharmacological Reports, 2022)
Structures can show the parent of a compound that is named as a salt. Where two headings read alike, the source gives them in different places.

Key:
[1] = Pharmacokinetics in plasma; assay type: in vivo, rats; settings: for bioavailability / AUC(0-t) / C0 / MRT / clearance / Vd / k el / CL/F / Cmax / Tmax / Vd/F: male, Wistar, rat, plasma; for bioavailability: po; for bioavailability / AUC(0-t) / C0 / MRT / clearance / Vd / k el / CL/F / Cmax / Tmax / Vd/F / t0.5λz: rats; for Vd: read-out: Vz; for k el: read-out: λz (converted); for Vd/F: read-out: Vz/F
Description: Pharmacokinetic study design. Male Wistar rats (250–300 g) bred in-house from progenitors obtained from Charles River Laboratories (Sulzfed, Germany) were used in this study. Animals were fasted overnight prior to drug administration but had free access to water. […] Moreover, this compound dissolved in the same solvent was administered orally (po) by oral gavage at two doses (50 and 100 mg/kg) (n = 4). Blood samples were collected from the catheter at various time points up to 5 h. […] The animals were anaesthetized (50/7.5 mg/kg ketamine/xylazine, ip) and sacrificed by decapitation at 5, 15, 30, 60, 120, 180, and 300 min after compound administration (n = 4 per time point). Blood was collected into heparinized tubes and organs such as liver, brain, lungs, kidneys, and heart were harvested. The blood samples were centrifuged at 4000 rpm for 10 min (EBA 12R, Hettich, Germany). Plasma and organs were stored at − 80 °C until analysis.
Determination of KM-408 in plasma and tissue homogenates. Before analysis, tissue samples were homogenized in phosphate-buffered saline, pH 7.4 (1:4, w/v) with a tissue homogenizer (TH220; Omni International, Inc., Warrenton, VA, USA). Plasma (100 μL) or homogenate samples (500 μL) were mixed with an internal standard (IS) solution (R-( +)-propranolol, 4 μg/mL in methanol). Then, 20 μL of sodium carbonate (0.125 M) was added to each tube and the samples were extracted with 3 mL of diethyl ether by vortexing for 1 min. After centrifugation (3000 rpm, 15 min), the organic phase was transferred to a new tube and evaporated to dryness under a gentle stream nitrogen at 37 °C in a water bath. The dry residue was reconstituted in 100 μL of acetonitrile. Subsequently, 50 μL of 0.2 M borate buffer (pH = 7.0) and 50 μL of 6 mM FMOC-Cl solution in acetonitrile were added. After vortex-mixing for 1 min, the samples were kept for 30 min at 40 °C in a dry heat sterilizer (model MOV-112S, Sanyo, Japan). The reaction was stopped by the addition of 0.1 M solution of glycine in water (30 μL) and vortexing for 1 min. The reaction mixture was transferred directly into the autosampler vials. The chromatographic system (Merck-HITACHI, Japan) consisted of an L-2485 spectrofluorimetric detector operating at the excitation and emission wavelengths of 267 and 316 nm, respectively, an L-2130 pump, an L-2350 column oven, and an L-2200 autosampler. The EZChrom Elite Client/Server version 3.2 (Agilent Technologies Inc.) was used for data acquisition and processing. […] The column temperature was maintained at 50 °C. The mobile phase consisted of a mixture of acetonitrile and water (67:33, v/v), and pumped at a flow rate of 1 mL/min.
Pharmacokinetic data analysis. Plasma and tissue concentration versus time profiles were analyzed by the non-compartmental approach in Phoenix WinNonlin v. 6.3 software (Pharsight Corporation, Mountain View, CA, USA). The peak concentration (Cmax) and the time to reach Cmax (tmax) were obtained directly from individual concentration–time profiles. The initial concentration (C0) after an iv dosing was obtained by extrapolation to zero time. The linear trapezoidal rule was applied to calculate the areas under the concentration–time curve (AUC) from the time of dosing to the last measured data point (AUC0-t) or infinity (AUC0-∞). The terminal slope (λz) was estimated by linear regression and the terminal half-life (t0.5λz) was calculated as ln2/λz. The volume of distribution based on the terminal phase (Vz) was calculated as: Dose/(λz ∙ AUC0-∞), whereas clearance (CL) was obtained from the following equation: Dose/AUC0-∞. The mean residence time (MRT) was defined as: AUMC0-∞/AUC0-∞, where AUMC is the area under the first moment curve. The absolute bioavailability (Fa) was calculated according to the equation: (AUCpo./Dosepo)/(AUCiv/Doseiv).

[2] = tested on: organotypic hippocampal slice cultures; test: Neuroprotection primary screen, excitotoxin NMDA; assay type: cell-based; settings: NMDA 10 µM; 10 and 100 µM compound
Description: Gompound 1 : ADD Number: ItSot+ Batct: lE- Date Started:
Compound 2 : ADD Number: Froso Batct: le Date Completed i l|26-M ar -20 1 O […]
Excitotoxin: lNmoa lnsult Duration: la Uouo Solvent:
Primary Screen Results: ffi […]
Al lruuoa rolrr,| A2lr'rrr,tOa r Olrrr,t * --.- A3 lr'rnroa r oprvr + lsaoot+ t oplrl+aesogo iopM
BZ lr.rrr,ron ropr,t , -_-_-- 83 lluoa topt',r * jffi 1 4 t oopM.€sroso 1 oolrM la+eota tooptu*aasoeo roffi […]
The 'Primary screen Experiment" is a qualitative assessment of the ability of a compound to prevent excrtotoxic cell death. organotypic hippocampal slice cultures are treated *ltn r.i-."iivr-o-"spartate (NMDA) or kainic acad (KA) to induce neuronal cell death' Propidium iodide (Pl), a membrane-imper.eant cornpouna, is included in all wells of the culture plate.
Dying cells have compromised *]lT^"Toj*::, ttr. er rnJy oin "" into the cell, intercatate with DNA and fluoresce. Thus, the intensity of the Pl fluorescence is proportional to the amount of cell death in lhe individual itices. ttippocampat slice cullures are treated with the excitotoxin alone, or *i er. inoi"ui"o above, with the excitotoxin and either one -qf]bar-a Investigalional compounds at the concentrations indicated. lf neuroprotectron occurs as a consequence of the added […]
been treated with the excitotoxin alone.
(1 picture or pasted object on this page, not shown here)

CCC(CO)NCCOc1c(C)cccc1Cl (stereo not drawn) [KM-408, R,S-2-((2-(2-chloro-6-methylphenoxy)ethyl)amino)butan-1-ol hydrochloride]
plasma concentration ([1]; 5 mg/kg iv, immediately after administration): 1.48*10^–5 M
bioavailability ([1]; 50 mg/kg, po 50 mg/kg, read-out: F): 3.9%
bioavailability ([1]; 100 mg/kg, po 100 mg/kg, read-out: F): 3.6%
bioavailability ([1]; 100 mg/kg, po 50 and 100 mg/kg, read-out: absolute bioavailability): 3.6 to 3.9%
AUC(0-t) ([1]; iv 1 mg/kg): 207 ng·h/mL
C0 ([1]; iv 1 mg/kg): 371 ng/mL
MRT ([1]; iv 1 mg/kg): 51.7 min
clearance ([1]; iv 1 mg/kg): 80 mL/min/kg
Vd ([1]; iv 1 mg/kg): 2.53 L/kg
k el ([1]; iv 1 mg/kg): 0.000533 s⁻¹
AUC(0-t) ([1]; iv 5 mg/kg): 1210 ng·h/mL
C0 ([1]; iv 5 mg/kg): 4360 ng/mL
MRT ([1]; iv 5 mg/kg): 43.5 min
clearance ([1]; iv 5 mg/kg): 70 mL/min/kg
Vd ([1]; iv 5 mg/kg): 3.77 L/kg
k el ([1]; iv 5 mg/kg): 0.0003 s⁻¹
AUC(0-t) ([1]; iv 10 mg/kg): 2720 ng·h/mL
C0 ([1]; iv 10 mg/kg): 5330 ng/mL
MRT ([1]; iv 10 mg/kg): 42.3 min
clearance ([1]; iv 10 mg/kg): 60 mL/min/kg
Vd ([1]; iv 10 mg/kg): 2.3 L/kg
k el ([1]; iv 10 mg/kg): 0.00045 s⁻¹
AUC(0-t) ([1]; po 50 mg/kg): 430 ng·h/mL
CL/F ([1]; po 50 mg/kg): 1950 mL/min/kg
Cmax ([1]; po 50 mg/kg): 313 ng/mL
MRT ([1]; po 50 mg/kg): 79.1 min
Tmax ([1]; po 50 mg/kg): 30 min
Vd/F ([1]; po 50 mg/kg): 80.3 L/kg
k el ([1]; po 50 mg/kg): 0.000383 s⁻¹
AUC(0-t) ([1]; po 100 mg/kg): 807 ng·h/mL
CL/F ([1]; po 100 mg/kg): 2060 mL/min/kg
Cmax ([1]; po 100 mg/kg): 573 ng/mL
MRT ([1]; po 100 mg/kg): 83 min
Tmax ([1]; po 100 mg/kg): 30 min
Vd/F ([1]; po 100 mg/kg): 104 L/kg
k el ([1]; po 100 mg/kg): 0.000333 s⁻¹
t0.5λz ([1]; iv 1 mg/kg): 21.80 min
t0.5λz ([1]; iv 5 mg/kg): 37.94 min
t0.5λz ([1]; iv 10 mg/kg): 26.02 min
t0.5λz ([1]; po 50 mg/kg): 30.59 min
t0.5λz ([1]; po 100 mg/kg): 34.98 min

CCC(CO)NCCOc1c(C)cccc1Cl (stereo not drawn) [Compound 4, R,S-2-((2-(2-chloro-6-methylphenoxy)ethyl)amino)butan-1-ol]
Test Result (neuroprotection) [2]: No Neuroprotection
